Tests used:
[1] = target: T1, Tyk2 (Homo sapiens, UniProt P29597); assay: Tyk2 enzyme inhibition test (LANCE method); assay type: biochemical; conditions: test compound 1 μM; for inhibition at 1 µM: read-out: Inhibitory rate (%) Tyk2 1 μM
T1 construct: purchased Invitrogen
In short: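 Recombinant Tyk2 (375 ng/mL stock) with ULight-JAK1 peptide (300 nM stock) and ATP (30 μM stock) in HEPES pH 7.5/MgCl2/EGTA/DTT buffer, 1 h at room temperature. Stopped with EDTA plus Eu-anti-phosphotyrosine antibody; TR-FRET read at 665 nm after 1 h. No-enzyme wells define 100% inhibition.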

[2] = target: T2, JAK1 (Homo sapiens, UniProt P23458); assay: JAK1 enzyme inhibition test (LANCE method); assay type: biochemical; conditions: for inhibition at 1 µM: test compound 1 μM, read-out: Inhibitory rate (%) JAK1 1 μM
T2 construct: purchased Invitrogen
In short: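 TR-FRET (LANCE) kinase assay using JAK1 at 187.5 ng/mL, ULight-JAK1 peptide at 300 nM and ATP at 150 μM, given as solution concentrations before mixing. Buffer was 50 mM HEPES pH 7.5 with 10 mM MgCl2 and 2 mM DTT, and the reaction ran 1 h at room temperature. Eu anti-phosphotyrosine signal at 665 nm was expressed relative to a no-enzyme well, taken as 100% inhibition.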

T1 sequence (P29597 whole entry): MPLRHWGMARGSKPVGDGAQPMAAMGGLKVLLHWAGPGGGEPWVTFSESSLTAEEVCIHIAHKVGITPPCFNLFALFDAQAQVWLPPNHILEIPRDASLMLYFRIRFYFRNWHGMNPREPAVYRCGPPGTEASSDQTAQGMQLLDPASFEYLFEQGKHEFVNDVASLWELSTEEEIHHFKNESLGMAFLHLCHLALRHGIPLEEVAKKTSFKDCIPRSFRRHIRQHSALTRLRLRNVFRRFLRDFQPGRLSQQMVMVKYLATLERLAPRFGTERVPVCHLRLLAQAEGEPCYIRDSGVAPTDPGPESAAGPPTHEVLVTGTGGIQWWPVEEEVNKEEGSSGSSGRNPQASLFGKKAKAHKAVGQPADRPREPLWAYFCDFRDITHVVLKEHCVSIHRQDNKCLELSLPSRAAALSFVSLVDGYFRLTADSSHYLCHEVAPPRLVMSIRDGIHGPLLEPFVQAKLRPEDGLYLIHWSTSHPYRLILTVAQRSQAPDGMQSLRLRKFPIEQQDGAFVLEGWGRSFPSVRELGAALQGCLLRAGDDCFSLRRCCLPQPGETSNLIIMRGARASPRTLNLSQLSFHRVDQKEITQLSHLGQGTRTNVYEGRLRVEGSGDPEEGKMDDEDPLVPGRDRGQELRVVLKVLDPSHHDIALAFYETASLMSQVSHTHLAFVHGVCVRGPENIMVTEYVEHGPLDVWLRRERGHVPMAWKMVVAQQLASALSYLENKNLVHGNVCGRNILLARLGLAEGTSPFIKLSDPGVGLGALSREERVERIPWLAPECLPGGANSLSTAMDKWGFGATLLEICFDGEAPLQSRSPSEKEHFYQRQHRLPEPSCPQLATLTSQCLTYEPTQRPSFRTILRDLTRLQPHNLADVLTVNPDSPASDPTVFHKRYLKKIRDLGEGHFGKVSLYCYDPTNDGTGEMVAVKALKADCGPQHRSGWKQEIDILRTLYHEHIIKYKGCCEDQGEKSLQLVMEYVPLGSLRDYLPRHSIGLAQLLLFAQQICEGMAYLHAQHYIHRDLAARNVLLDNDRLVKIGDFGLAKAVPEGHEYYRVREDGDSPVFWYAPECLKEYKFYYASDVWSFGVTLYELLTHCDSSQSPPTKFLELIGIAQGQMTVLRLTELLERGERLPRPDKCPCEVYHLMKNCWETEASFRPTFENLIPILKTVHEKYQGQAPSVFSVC
T2 sequence (P23458 whole entry): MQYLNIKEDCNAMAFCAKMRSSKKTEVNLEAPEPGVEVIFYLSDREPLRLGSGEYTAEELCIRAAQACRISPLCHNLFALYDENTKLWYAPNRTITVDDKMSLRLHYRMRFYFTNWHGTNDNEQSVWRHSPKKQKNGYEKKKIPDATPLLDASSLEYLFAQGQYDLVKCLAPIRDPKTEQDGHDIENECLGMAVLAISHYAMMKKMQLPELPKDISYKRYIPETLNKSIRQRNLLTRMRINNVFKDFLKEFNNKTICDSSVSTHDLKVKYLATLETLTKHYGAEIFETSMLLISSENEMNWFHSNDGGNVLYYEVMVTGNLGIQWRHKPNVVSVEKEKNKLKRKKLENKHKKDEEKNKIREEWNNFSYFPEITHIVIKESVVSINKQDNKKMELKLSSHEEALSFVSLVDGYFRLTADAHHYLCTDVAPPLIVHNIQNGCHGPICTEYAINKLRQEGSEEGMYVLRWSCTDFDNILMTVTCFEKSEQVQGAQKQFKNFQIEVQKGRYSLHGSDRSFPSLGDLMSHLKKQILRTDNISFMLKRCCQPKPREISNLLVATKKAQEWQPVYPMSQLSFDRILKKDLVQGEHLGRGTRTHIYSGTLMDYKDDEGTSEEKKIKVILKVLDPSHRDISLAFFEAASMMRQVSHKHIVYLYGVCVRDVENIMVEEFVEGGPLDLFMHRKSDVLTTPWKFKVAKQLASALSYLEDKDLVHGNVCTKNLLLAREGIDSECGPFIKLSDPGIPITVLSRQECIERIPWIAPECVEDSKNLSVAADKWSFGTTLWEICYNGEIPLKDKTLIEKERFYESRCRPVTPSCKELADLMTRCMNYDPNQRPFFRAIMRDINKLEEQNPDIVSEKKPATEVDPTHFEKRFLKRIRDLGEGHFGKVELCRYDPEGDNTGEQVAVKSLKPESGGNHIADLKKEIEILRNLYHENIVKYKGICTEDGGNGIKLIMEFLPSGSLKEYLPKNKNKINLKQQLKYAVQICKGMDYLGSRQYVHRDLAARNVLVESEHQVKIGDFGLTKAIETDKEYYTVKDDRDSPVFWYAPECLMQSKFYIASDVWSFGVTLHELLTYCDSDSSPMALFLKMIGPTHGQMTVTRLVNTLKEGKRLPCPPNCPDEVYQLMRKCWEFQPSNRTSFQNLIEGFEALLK

Row | inhibition at 1 µM [1] | inhibition at 1 µM [2] | Inhibitory rate (%) Tyk2 1 μM [1] | Inhibitory rate (%) JAK1 10 μM ([2]; test compound 10 μM (Ex. 182-220), beside Tyk2 1 μM) | Compound
1 | 99% | 97% |  |  | Cn1cc(-c2cn(C3CCCC3)c3c(C#N)c[nH]c(=O)c23)cn1 [Example 131, 1-cyclopentyl-3-(1-methyl-1H-pyrazol-4-yl)-4-oxo-4,5-dihydro-1H-pyrrolo[3,2-c]pyridine-7-carbonitrile]
2 | 41% | 8% |  |  | NC(=O)c1cc(-c2cn(C3CCCC3)c3c(C(=O)O)c[nH]c(=O)c23)cs1 [Example 61, 3-(5-carbamoyl-3-thienyl)-1-cyclopentyl-4-oxo-4,5-dihydro-1H-pyrrolo[3,2-c]pyridine-7-carboxylic acid]
3 |  |  | 98% | 99% | CC1(O)CCC(n2nc(-c3ccc(S(N)(=O)=O)cc3)c3c(=O)[nH]ccc32)CC1 (stereo not drawn) [Example 197, 4-(1-(4-hydroxy-4-methylcyclohexyl)-4-oxo-4,5-dihydro-1H-pyrazolo[4,3-c]pyridin-3-yl)benzenesulfonamide]
4 | 99% | 78% |  |  | O=C1CCCN1Cc1ccc(-c2nn(-c3c(F)cccc3F)c3c(Cl)c[nH]c(=O)c23)cc1 [Example 224, 7-chloro-1-(2,6-difluorophenyl)-3-(4-((2-oxopyrrolidin-1-yl)methyl)phenyl)-1,5-dihydro-4H-pyrazolo[4,3-c]pyridin-4-one]
5 | 98% | 86% |  |  | N#Cc1c[nH]c(=O)c2c(-c3ccc(CC(N)=O)cc3)cn(C3CCCC3)c12 [Example 95, 2-(4-(7-cyano-1-cyclopentyl-4-oxo-4,5-dihydro-1H-pyrrolo[3,2-c]pyridin-3-yl)phenyl)acetamide]
6 | 100% | 99% |  |  | CNC(=O)c1cc(-c2cn(C3CCCC3)c3c(C#N)c[nH]c(=O)c23)cs1 [Example 108, 4-(7-cyano-1-cyclopentyl-4-oxo-4,5-dihydro-1H-pyrrolo[3,2-c]pyridin-3-yl)-N-methylthiophene-2-carboxamide]
7 | 90% | 95% |  |  | NS(=O)(=O)c1ccc(-c2cn([C@H]3CC[C@H](O)CC3)c3cc[nH]c(=O)c23)cc1 [Example 31, 4-(1-(trans-4-hydroxycyclohexyl)-4-oxo-4,5-dihydro-1H-pyrrolo[3,2-c]pyridin-3-yl)benzenesulfonamide]
8 | 53% | 77% |  |  | N#CCc1ccc(-c2cn(C3CCOC3)c3cc[nH]c(=O)c23)cc1 (stereo not drawn) [Example 22, (4-(4-oxo-1-(tetrahydrofuran-3-yl)-4,5-dihydro-1H-pyrrolo[3,2-c]pyridin-3-yl)phenyl)acetonitrile]
9 | 76% | 27% |  |  | N#Cc1c[nH]c(=O)c2c1c(C1CCCC1)nn2-c1csc(C(=O)O)c1 [Example 65, 4-(4-cyano-3-cyclopentyl-7-oxo-6,7-dihydro-1H-pyrazolo[3,4-c]pyridin-1-yl)thiophene-2-carboxylic acid]
